Measured values reported in article PMC5127189 (Scientific Reports, 2016).

What was measured:
[1] = system: c-kit-2 (DNA, G4) CGGGCGGGCGCTAGGGAGGGT; assay: fluorescent intercalator displacement (FID); set-up: unit not given here; details: thiazole orange displaced
[2] = system: HTG21 (DNA, G4) GGGTTAGGGTTAGGGTTAGGG; assay: fluorescent intercalator displacement (FID); set-up: unit not given here; details: thiazole orange displaced
[3] = system: ds26 (DNA, duplex) CAATCGGATCGAATTCGATCCGATTG; assay: fluorescent intercalator displacement (FID); set-up: unit not given here; details: thiazole orange displaced
[4] = system: c-kit-1 (DNA, G4) CGGGCGGGCACGAGGGAGGGT; assay: fluorescent intercalator displacement (FID); set-up: unit not given here; details: thiazole orange displaced
[5] = system: Pu27 (DNA, G4) TGGGGAGGGTGGGGAGGGTGGGGAAGG; assay: fluorescent intercalator displacement (FID); set-up: unit not given here; details: thiazole orange displaced
[6] = system: Pu22 (DNA, G4) TGAGGGTGGGTAGGGTGGGTAA; assay: fluorescent intercalator displacement (FID); set-up: unit not given here; details: thiazole orange displaced
[7] = system: HL-7702 cells; assay: MTT cytotoxicity assay, normal cell line; type: cell-based, human; details: HL-7702, 48 h; for Inhibitory rates (%): footnote a: 20 μM, footnotes b, c (salts, cisplatin) cut off
Procedure: (§1) The cytotoxic activity of the L^a–L^d and complexes 1–14 were tested against a panel of cell lines such as Hep-G2, NCI-H460, SK-OV-3, HCT-8, BEL-7402 cells, and one normal cell line, HL-7702, and cell viability was determined using the MTT assay. Cisplatin was used as the positive control.

[8] = system: Hep-G2 cells; details: Hep-G2, 48 h; for Inhibitory rates (%): footnote a: 20 μM, footnotes b, c (salts, cisplatin) cut off
Procedure: as §1

[9] = system: BEL-7402 cells; assay: MTT cytotoxicity assay; type: cell-based, human; details: BEL-7402, 48 h; for Inhibitory rates (%): footnote a: 20 μM, footnotes b, c (salts, cisplatin) cut off
Procedure: as §1

[10] = system: SK-OV-3 cells; assay: MTT cytotoxicity assay; type: cell-based, human; details: SK-OV-3, 48 h; for Inhibitory rates (%): footnote a: 20 μM, footnotes b, c (salts, cisplatin) cut off
Procedure: as §1

[11] = system: NCI-H460 cells; assay: MTT cytotoxicity assay; type: cell-based, human; details: NCI-H460, 48 h; for Inhibitory rates (%): footnote a: 20 μM, footnotes b, c (salts, cisplatin) cut off
Procedure: as §1

[12] = system: HCT-8 cells; assay: MTT cytotoxicity assay; type: cell-based, human; details: HCT-8, 48 h; for Inhibitory rates (%): footnote a: 20 μM, footnotes b, c (salts, cisplatin) cut off
Procedure: as §1

[13] = system: ds26 (DNA, duplex) CAATCGGATCGAATTCGATCCGATTG; assay: fluorescent intercalator displacement (FID); details: K+ 100 mM (TBS); 10 mM Tris, pH 7.35 (TBS as defined in Table 4); thiazole orange displaced
[14] = system: HTG21 (DNA, G4) GGGTTAGGGTTAGGGTTAGGG; assay: fluorescent intercalator displacement (FID); details: K+ 100 mM (TBS); 10 mM Tris, pH 7.35 (TBS as defined in Table 4); thiazole orange displaced
[15] = system: Pu27 (DNA, G4) TGGGGAGGGTGGGGAGGGTGGGGAAGG; assay: fluorescent intercalator displacement (FID); details: K+ 100 mM (TBS); 10 mM Tris, pH 7.35 (TBS as defined in Table 4); thiazole orange displaced
[16] = system: Pu22 (DNA, G4) TGAGGGTGGGTAGGGTGGGTAA; assay: fluorescent intercalator displacement (FID); details: K+ 100 mM (TBS); 10 mM Tris, pH 7.35 (TBS as defined in Table 4); thiazole orange displaced
[17] = system: c-kit-1 (DNA, G4) CGGGCGGGCACGAGGGAGGGT; assay: fluorescent intercalator displacement (FID); details: K+ 100 mM (TBS); 10 mM Tris, pH 7.35 (TBS as defined in Table 4); thiazole orange displaced
[18] = Body weight in the BEL-7402 xenograft study
Procedure: To investigate the efficacy of 3 to inhibit tumor growth in vivo, a mouse model of human hepatoma (BEL-7402) xenograft was used. The tumor-bearing nude mice received treatment when the tumor size was between 100 and 160 mm^3. The mice were treated with 3 at 16 and 8 mg/kg two times every day, and treatment of cisplatin with 2 mg/kg/2days as the positive control.
(1 picture or pasted object on this page, not shown here)

[19] = system: Hep-G2 cells; assay: Distribution of metal in nuclear and mitochondrial fractions (ICP-MS); type: cell-based, human; details: Hep-G2, 24 h
Procedure: The distributions of metal (cisplatin, complexes 1–6, 7, 8, 10 and 11) in the nuclear fraction and mitochondrial fractions of Hep-G2 cells were studied after exposure of Hep-G2 cells to 1–6, 7, 8, 10, 11 and cisplatin for 24 h according to our previous reports. […] Taken together, their difference of metal (Pt, Ni or Pd) distribution for complexes 1–6, 7, 8, 10, 11 and cisplatin could be attributed to their differences in cytotoxicity and the apoptotic pathways in Hep-G2 cells.

[20] = system: Hep-G2 cells; assay: Cellular uptake of metal by ICP-MS; type: cell-based, human; details: Hep-G2, 24 h; 3 5 μM, 6 14 μM, 7 16 μM, 8 10 μM, 10 12 μM, 11 6 μM, cisplatin 10 μM
Procedure: In order to understand the uptake and distribution of cisplatin, complexes 1–6, 7, 8, 10 and 11 in Hep-G2 cells, an ICP-MS assay was performed to quantify the amount of metal (Pt, Ni or Pd) taken up by the cells.

[21] = system: human hepatoma (BEL-7402) xenograft; assay: In vivo antitumor activity, BEL-7402 xenograft model; set-up: species or system nude mice; details: cisplatin, 2 mg/kg/2days ip; for Tumor Volume (end): day 18, 2 mg/kg
Procedure: Animal used, acute toxicity studies and antitumor activity toward BEL-7402 in vivo of complex 3 (16 and 8 mg/kg, two time a day,17 days (ip)), complex 6 (3.2 and 1.6 mg/kg/ day, 17 days) and cisplatin (2 mg/kg/2days), were similar to that reported by Chen[43][80]. BEL-7402 xenograft mouse models were purchased from Beijing HFK Bioscience Co., Ltd (Beijing, China, approval No. SCXK 2014-004). The animal procedures were approved by the Institute of Radiation Medicine Chinese Academy of Medical Sciences (Tian Jin, China, approval No. SYXK 2014-0002). And all of the experimental procedures were carried out in accordance with the NIH Guidelines for the Care and Use of Laboratory Animals. Animal experiments were approved by the Animal Care and Use Committee of Institute of Radiation Medicine Chinese Academy of Medical Sciences.

Compound	c-kit-2DC50 [1]	HTG21DC50 [2]	ds26DC50 [3]	c-kit-1DC50 [4]	Pu27DC50 [5]	Pu22DC50 [6]	Inhibitory rates (%) [7]	Inhibitory rates (%) [8] [%]	Inhibitory rates (%) [9] [%]	Inhibitory rates (%) [10] [%]	Inhibitory rates (%) [11]	Inhibitory rates (%) [12]	further results
O=C1c2c(Cl)cc[c]3c2-c2c4c1cccc4cc[n+]2[Pt-2]31[NH2+]CCC[NH2+]1.[Cl-] (stereo not shown) [compound 9, [Pt(L^c)(pn)]Cl]	–	–	–	–	–	–	39.56 ± 1.01%	58.11 ± 2.05	40.64 ± 0.85	36.74 ± 1.21	47.28 ± 1.07%	40.89 ± 1.79%	IC50 [7]: 80 ± 1.02 µM; IC50 [8]: 15.9 ± 2.11 µM; IC50 [9]: 45 ± 0.86 µM; IC50 [10]: 30.4 ± 1.19 µM; IC50 [11]: 25.1 ± 1.09 µM; IC50 [12]: 25.2 ± 1.82 µM
COC1c2c([c-]ccc2Cl)-c2nccc3cccc1c23.CS(C)=O.[Cl-].[Pt+2] (stereo not shown)	79.69	55.16	91.48	–	–	–	–	–	–	–	–	–	Pu27DC50 [15]: 33.15; Pu22DC50 [16]: 74.91; c-kit-1DC50 [17]: 79.95
cis-Pt(DMSO)2Cl2 [reference compound]	–	–	–	–	–	–	no activity	17.83 ± 0.57	10.74 ± 0.95	15.11 ± 1.17	no activity	no activity	–
[Cl][Pd][Cl] [PdCl2, reference compound]	–	–	–	–	–	–	18.24 ± 1.33%	20.14 ± 1.18	18.59 ± 1.77	19.02 ± 1.04	9.91 ± 1.49%	15.05 ± 1.84%	–
O.O.O.O.O.O.[Cl][Ni][Cl] [NiCl2·6H2O, reference compound]	–	–	–	–	–	–	17.03 ± 1.16%	15.06 ± 1.09	11.28 ± 1.08	20.88 ± 0.61	10.44 ± 1.82%	12.75 ± 1.09%	–
NCCN [en, 1,2-ethylenediamine, reference compound]	–	–	–	–	–	–	15.03 ± 0.65%	13.64 ± 2.03	–	18.42 ± 0.98	20.58 ± 1.66%	16.45 ± 1.92%	–
N.N.[Cl][Pt][Cl] [Cisplatin, cisplatin, reference compound]	–	–	–	–	–	–	63.09 ± 1.35%	68.71 ± 0.56	65.82 ± 1.11	58.06 ± 1.03	59.13 ± 1.35%	56.07 ± 1.67%	IC50 [7]: 12.3 ± 1.19 µM; body weight loss during treatment (in words) ([18]; BEL-7402 xenograft mice): severe body weight loss; Body Weight (end) ([18]; cisplatin, 2 mg/kg/2days ip): 19.6 ± 0.9 g; Body Weight (start) ([18]; cisplatin, 2 mg/kg/2days ip): 22.5 ± 1.1 g; RBW (%) (end) ([18]; cisplatin, 2 mg/kg/2days ip): 87.11 ± 4.8%; distribution of metal in nuclear and mitochondrial fractions [19]: mainly accumulated in the mitochondrial fraction; IC50 [8]: 9.65 ± 0.87 µM; IC50 [9]: 12.7 ± 0.94 µM; IC50 [10]: 14.1 ± 1.07 µM; IC50 [11]: 18.1 ± 1.26 µM; IC50 [12]: 16.3 ± 1.54 µM; cellular accumulation of metal (Pt) [20]: 4.89 ± 0.43 nmol platinum/10^6 cells; Tumor Volume (start) [21]: 104.79 ± 32.12 mm^3; average tumor weight (mean ± SD g) [21]: 0.52 ± 0.29 g; Tumor Volume (end) [21]: 566.82 ± 331.08 mm^3; Tumor Volume (end) ([21]; listed as cisplatin): 566 mm^3; inhibition of tumor growth (%) / Inhibition Ratio ([21]; tumor weight): 75.9%

Further lines, with some results ahead:

c-kit-2DC50 [1]	HTG21DC50 [2]	ds26DC50 [3]	c-kit-1DC50 [4]	Pu27DC50 [5]	Pu22DC50 [6]	Compound	Inhibitory rates (%) [7]	Inhibitory rates (%) [8] [%]	Inhibitory rates (%) [9] [%]	Inhibitory rates (%) [10] [%]	Inhibitory rates (%) [11]	Inhibitory rates (%) [12]	further results
> 100	49.08	90.63	78.46	42.51	89.64	Nc1cccc2c1C(=O)c1cccc3ccnc-2c13.[Cl-].[Cl-].[Pd+2]	–	–	–	–	–	–	–
87.29	70.83	96.11	90.02	60.02	99.81	CS(C)=O.O=C1c2c([c-]ccc2Cl)-c2nccc3cccc1c23.[Cl-].[Pt+2]	–	–	–	–	–	–	–
45.30	–	–	73.65	14.22	90.18	Nc1cccc2c1C(=O)c1cccc3ccnc-2c13.[Cl-].[Cl-].[Ni+2]	–	–	–	–	–	–	ds26DC50 [13]: 70.46; HTG21DC50 [14]: 26.45
5.01	3.91	21.76	18.75	3.88	9.09	Nc1ccc2ccnc3c2c1C(=O)c1ccccc1-3.[Cl-].[Cl-].[Pd+2]	–	–	–	–	–	–	–
3.61	3.35	37.01	9.11	1.31	7.63	Nc1ccc2ccnc3c2c1C(=O)c1ccccc1-3.[Cl-].[Cl-].[Ni+2]	–	–	–	–	–	–	–
